# Assay results from patent publication US10975093B2, “Fused 1,4-diazepines as BET protein degraders” (THE REGENTS OF THE UNIVERSITY OF MICHIGAN, priority 2016, dated 2021).
# Legend:
# MOLM-13 = experiment: Cell growth inhibition, CellTiter-Glo Luminescent Cell Viability Assay, MOLM-13; type: cell-based; details: Homo sapiens, MOLM-13, 96 h, MOLM-13 cells, 4 days incubation
# Protocol: (§1) Cell growth inhibitory activity of representative Compounds of the Disclosure was determined in various cell lines using CellTiter-Glo® Luminescent Cell Viability Assay. Cells were seeded in 384-well white opaque cell culture plates at a density of 2,000 cells/well with serially diluted compounds and incubated at 37° C. in an atmosphere of 95% air and 5% CO2 for 4 days. Cell viability was determined using the CellTiter-Glo® Luminescent Cell Viability Assay Kit (Promega, Madison, Wis.) according to the manufacture's instruction. Briefly, a volume of CellTiter-Glo® Reagent equal to the volume of cell culture medium was added to each well, and then the plates were incubated at room temperature for 10-20 minutes. The luminescent signal was measured using a Tecan Infinite M1000 multimode microplate reader (Tecan, Morrisville, N.C.). The half maximal inhibitory concentration (IC50) was calculated using the GraphPad Prism 5 software (GraphPad Software, La Jolla, Calif.).
# MDA-MB-231 = experiment: Cell growth inhibition, CellTiter-Glo Luminescent Cell Viability Assay, MDA-MB-231; type: cell-based; details: Homo sapiens, MDA-MB-231, 96 h, MDA-MB-231 cells, 4 days incubation
# Protocol: as §1
IC50 (MOLM-13),IC50 (MDA-MB-231),SMILES
0.6 nM,–,"Cc1c(C#Cc2cnn(CCCN3CC(Nc4cccc5c4CN(C4CCC(=O)NC4=O)C5=O)C3)c2)sc2c1C(c1ccc(Cl)cc1)=N[C@@H](C)c1nnc(C)n1-2 (stereo partly drawn) [compound 177, 3-(4-((1-(3-(4-(((S)-4-(4-chlorophenyl)-3,6,9-trimethyl-6H-thieno[3,2-f][1,2,4]triazolo[4,3-a][1,4]diazepin-2-yl)ethynyl)-1H-pyrazol-1-yl)propyl)azetidin-3-yl)amino)-1-oxoisoindolin-2-yl)piperidine-2,6-dione]"
0.35 nM,1.5 nM,"Cc1c(C#Cc2cnn(CCN3CC(CNc4cccc5c4CN(C4CCC(=O)NC4=O)C5=O)C3)c2)sc2c1C(c1ccc(Cl)cc1)=N[C@@H](C)c1nnc(C)n1-2 (stereo partly drawn) [compound 175, 3-(4-(((1-(2-(4-(((S)-4-(4-chlorophenyl)-3,6,9-trimethyl-6H-thieno[3,2-f][1,2,4]triazolo[4,3-a][1,4]diazepin-2-yl)ethynyl)-1H-pyrazol-1-yl)ethyl)azetidin-3-yl)methyl)amino)-1-oxoisoindolin-2-yl)piperidine-2,6-dione]"
0.05 nM,0.1 nM,"Cc1c(C#Cc2cnn(CCCN3CCC(Nc4cccc5c4CN(C4CCC(=O)NC4=O)C5=O)CC3)c2)sc2c1C(c1ccc(Cl)cc1)=N[C@@H](CC(N)=O)c1nnc(C)n1-2 (stereo partly drawn) [compound 190, 2-((6S)-4-(4-chlorophenyl)-2-((1-(3-(4-((2-(2,6-dioxopiperidin-3-yl)-1-oxoisoindolin-4-yl)amino)piperidin-1-yl)propyl)-1H-pyrazol-4-yl)ethynyl)-3,9-dimethyl-6H-thieno[3,2-f][1,2,4]triazolo[4,3-a][1,4]diazepin-6-yl)acetamide]"
91.6 nM,–,"Cc1ncsc1-c1ccc([C@H](C)NC(=O)[C@@H]2COCCN2C(=O)[C@@H](NC(=O)COCCCn2cc(C#Cc3sc4c(c3C)C(c3ccc(Cl)cc3)=N[C@@H](C)c3nnc(C)n3-4)cn2)C(C)(C)C)cc1 [compound 202, (S)-4-((S)-2-(2-(3-(4-(((S)-4-(4-chlorophenyl)-3,6,9-trimethyl-6H-thieno[3,2-f][1,2,4]triazolo[4,3-a][1,4]diazepin-2-yl)ethynyl)-1H-pyrazol-1-yl)propoxy)acetamido)-3,3-dimethylbutanoyl)-N-((S)-1-(4-(4-methylthiazol-5-yl)phenyl)ethyl)morpholine-3-carboxamide]"
–,1.7 nM,"Cc1c(C#Cc2cnn(CCOCCOCCNc3cccc4c3CN(C3CCC(=O)NC3=O)C4=O)c2)sc2c1C(c1ccc(Cl)cc1)=N[C@@H](C)c1nnc(C)n1-2 (stereo partly drawn) [compound 188, 3-(4-((2-(2-(2-(4-(((S)-4-(4-chlorophenyl)-3,6,9-trimethyl-6H-thieno[3,2-f][1,2,4]triazolo[4,3-a][1,4]diazepin-2-yl)ethynyl)-1H-pyrazol-1-yl)ethoxy)ethoxy)ethyl)amino)-1-oxoisoindolin-2-yl)piperidine-2,6-dione]"
0.03 nM,0.06 nM,"Cc1c(C#Cc2cnn(CCCN3CCC(Nc4cccc5c4CN(C4CCC(=O)NC4=O)C5=O)CC3)c2)sc2c1C(c1ccc(Cl)cc1)=N[C@@H](CC(=O)Nc1ccc(O)cc1)c1nnc(C)n1-2 (stereo partly drawn) [compound 193, 2-((6S)-4-(4-chlorophenyl)-2-((1-(3-(4-((2-(2,6-dioxopiperidin-3-yl)-1-oxoisoindolin-4-yl)amino)piperidin-1-yl)propyl)-1H-pyrazol-4-yl)ethynyl)-3,9-dimethyl-6H-thieno[3,2-f][1,2,4]triazolo[4,3-a][1,4]diazepin-6-yl)-N-(4-hydroxyphenyl)acetamide]"
12.8 nM,17.6 nM,"Cc1c(C#Cc2cnn(CCCn3cnc(COc4cccc5c4CN(C4CCC(=O)NC4=O)C5=O)c3)c2)sc2c1C(c1ccc(Cl)cc1)=NCc1nnc(C)n1-2 (stereo not drawn) [compound 156, 3-(4-((1-(3-(4-((4-(4-chlorophenyl)-3,9-dimethyl-6H-thieno[3,2-f][1,2,4]triazolo[4,3-a][1,4]diazepin-2-yl)ethynyl)-1H-pyrazol-1-yl)propyl)-1H-imidazol-4-yl)methoxy)-1-oxoisoindolin-2-yl)piperidine-2,6-dione]"
2.5 nM,7.2 nM,"Cc1c(C#Cc2cnn(CCCC#Cc3ccc4c(c3)C(=O)N(C3CCC(=O)NC3=O)C4=O)c2)sc2c1C(c1ccc(Cl)cc1)=N[C@@H](C)c1nnc(C)n1-2 (stereo partly drawn) [compound 158, 5-(5-(4-(((S)-4-(4-chlorophenyl)-3,6,9-trimethyl-6H-thieno[3,2-f][1,2,4]triazolo[4,3-a][1,4]diazepin-2-yl)ethynyl)-1H-pyrazolo-1-yl)pent-1-yn-1-yl)-2-(2,6-dioxopiperidin-3-yl)isoindoline-1,3-dione]"
6.2 nM,7.2 nM,"Cc1c(C#Cc2ccc(CN3CCC(CNc4cccc5c4CN(C4CCC(=O)NC4=O)C5=O)CC3)cn2)sc2c1C(c1ccc(Cl)cc1)=NCc1nnc(C)n1-2 (stereo not drawn) [compound 167, 3-(4-(((1-((6-((4-(4-chlorophenyl)-3,9-dimethyl-6H-thieno[3,2-f][1,2,4]triazolo[4,3-a][1,4]diazepin-2-yl)ethynyl)pyridin-3-yl)methyl)piperidin-4-yl)methyl)amino)-1-oxoisoindolin-2-yl)piperidine-2,6-dione]"
3.3 nM,4.6 nM,"Cc1c(C#Cc2cnn(C[C@H]3C[C@H](Nc4cccc5c4CN(C4CCC(=O)NC4=O)C5=O)C3)c2)sc2c1C(c1ccc(Cl)cc1)=N[C@@H](C)c1nnc(C)n1-2 (stereo partly drawn) [compound 173, 3-(4-(((1S,3r)-3-((4-(((S)-4-(4-chlorophenyl)-3,6,9-trimethyl-6H-thieno[3,2-f][1,2,4]triazolo[4,3-a][1,4]diazepin-2-yl)ethynyl)-1H-pyrazol-1-yl)methyl)cyclobutyl)amino)-1-oxoisoindolin-2-yl)piperidine-2,6-dione]"
0.9 nM,0.6 nM,"Cc1c(C#Cc2ccc(CCCC#Cc3cccc4c3CN(C3CCC(=O)NC3=O)C4=O)nc2)sc2c1C(c1ccc(Cl)cc1)=N[C@@H](C)c1nnc(C)n1-2 (stereo partly drawn) [compound 166, 3-(4-(5-(5-(((S)-4-(4-chlorophenyl)-3,6,9-trimethyl-6H-thieno[3,2-f][1,2,4]triazolo[4,3-a][1,4]diazepin-2-yl)ethynyl)pyridin-2-yl)pent-1-yn-1-yl)-1-oxoisoindolin-2-yl)piperidine-2,6-dione]"
2.3 nM,4.4 nM,"Cc1c(C#Cc2cnn(C[C@H]3CC[C@@H](Nc4cccc5c4CN(C4CCC(=O)NC4=O)C5=O)CC3)c2)sc2c1C(c1ccc(Cl)cc1)=N[C@@H](C)c1nnc(C)n1-2 (stereo partly drawn) [compound 172, 3-(4-(((1R,4s)-4-((4-(((S)-4-(4-chlorophenyl)-3,6,9-trimethyl-6H-thieno[3,2-f][1,2,4]triazolo[4,3-a][1,4]diazepin-2-yl)ethynyl)-1H-pyrazol-1-yl)methyl)cyclohexyl)amino)-1-oxoisoindolin-2-yl)piperidine-2,6-dione]"
1 nM,0.6 nM,"Cc1c(C#Cc2cnn(CCCN3CCN(c4cccc5c4C(=O)N(C4CCC(=O)NC4=O)C5=O)CC3)c2)sc2c1C(c1ccc(Cl)cc1)=N[C@@H](C)c1nnc(C)n1-2 (stereo partly drawn) [compound 178, 4-(4-(3-(4-(((S)-4-(4-chlorophenyl)-3,6,9-trimethyl-6H-thieno[3,2-f][1,2,4]triazolo[4,3-a][1,4]diazepin-2-yl)ethynyl)-1H-pyrazol-1-yl)propyl)piperazin-1-yl)-2-(2,6-dioxopiperidin-3-yl)isoindoline-1,3-dione]"
10.3 nM,11.1 nM,"Cc1c(C#Cc2ccc(CCCCNc3cccc4c3CN(C3CCC(=O)NC3=O)C4=O)nc2)sc2c1C(c1ccc(Cl)cc1)=NCc1nnc(C)n1-2 (stereo not drawn) [Cpd. No. 17, 3-(4-((4-(5-((4-(4-chlorophenyl)-3,9-dimethyl-6H-thieno[3,2-f][1,2,4]triazolo[4,3-a][1,4]diazepin-2-yl)ethynyl)pyridin-2-yl)butyl)amino)-1-oxoisoindolin-2-yl)piperidine-2,6-dione]"
0.8 nM,0.7 nM,"Cc1c(C#Cc2cnn(CCOCCOCCOCC#Cc3cccc4c3CN(C3CCC(=O)NC3=O)C4=O)c2)sc2c1C(c1ccc(Cl)cc1)=N[C@@H](CC(=O)OC(C)(C)C)c1nnc(C)n1-2 (stereo partly drawn) [compound 194, tert-butyl 2-((6S)-4-(4-chlorophenyl)-2-((1-(2-(2-(2-((3-(2-(2,6-dioxopiperidin-3-yl)-1-oxoisoindolin-4-yl)prop-2-yn-1-yl)oxy)ethoxy)ethoxy)ethyl)-1H-pyrazol-4-yl)ethynyl)-3,9-dimethyl-6H-thieno[3,2-f][1,2,4]triazolo[4,3-a][1,4]diazepin-6-yl)acetate]"
0.24 nM,0.4 nM,"Cc1c(C#Cc2cnn(CCCN3CCC(Nc4cccc5c4CN(C4CCC(=O)NC4=O)C5=O)CC3)c2)sc2c1C(c1ccc(Cl)cc1)=NCc1nnc(C)n1-2 (stereo not drawn) [compound 148, 3-(4-((1-(3-(4-((4-(4-chlorophenyl)-3,9-dimethyl-6H-thieno[3,2-f][1,2,4]triazolo[4,3-a][1,4]diazepin-2-yl)ethynyl)-1H-pyrazol-1-yl)propyl)piperidin-4-yl)amino)-1-oxoisoindolin-2-yl)piperidine-2,6-dione]"
–,37.5 nM,Cc1ncsc1-c1ccc([C@H](C)NC(=O)[C@@H]2C[C@@H](F)CN2C(=O)[C@@H](NC(=O)COCCCn2cc(C#Cc3sc4c(c3C)C(c3ccc(Cl)cc3)=N[C@@H](C)c3nnc(C)n3-4)cn2)C(C)(C)C)cc1 [compound 203]
